Counter-ions that a name gives are not always drawn.

The test system of assay [1] is Male Sprague-Dawley rats. Put plainly: animal or person. Conditions: sc; minimum dose at which maximal reversal of hind paw weight bearing (50±0.5%) was achieved; subcutaneous administration; rat; read-out: MEMD SC CFA. Type of assay: in vivo, rat.
The target of assay [2] is T1, human μ opioid receptor (Homo sapiens (Human), UniProt P35372). Description: Alternate functional activity ([35S]GTPγS binding) assay, SPA beads. The format is biochemical. The note with it: alternate assay: [35S]GTPγS 0.020 nM, CHO cell membranes with WGA PVT SPA beads. On the procedure:
The [^35S]GTPγS assay measures the functional properties of a compound by quantifying the level of G-protein activation following agonist binding in studies using stably transfected cells, and is considered to be a measure of the efficacy of a compound. Membranes from CHO (Chinese Hamster Ovary) cells that stably expressed one type of the cloned human opioid receptor human were used in the experiments. The assay buffer consisted of 50 mM Tris-HCl, pH 7.4, 3 mM MgCl2, 0.2 mM EGTA, 5 μM GDP, and 100 mM NaCl. CHO cell membranes stably expressing the human p opioid receptor were pre-incubated with scintillation proximity assay beads from PerkinElmer® (WGA PVT SPA) for 30 minutes, at 8 µg membrane and […] beads in a volume of 0.1 mL per reaction. In a final volume of 0.2 mL, 11 different concentrations of each test compound were incubated with the membrane-SPA bead mixture and a final concentration of 0.020 nM [35S]GTPγS for 1.5 hours with gentle shaking. Reactions were then incubated for 5 hours. Data are the mean EC50 values ±S.E.M. EC50 values (nM) for compounds 12, 16, 19, 20, 149, 151, 152, 157, 160, 161, 164-169, 172, 173, 180-197, and 199-207 are shown in Table 1.
On the technique in general: Binding of GTPγS marks nucleotide exchange on a G protein.

Assay [3] concerns the target μ-receptor (Homo sapiens (Human), UniProt P35372). Put plainly: Receptor binding, competitive displacement of [3H]DAMGO. Conditions: 0.25 nM [3H]DAMGO, CHO cell membrane protein, 60 min at 25° C. A digest of the protocol:
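Membranes from CHO cells stably expressing cloned human μ-opioid receptor incubated 60 min at 25 °C with 12 compound concentrations and 0.25 nM [3H]DAMGO in 50 mM Tris-HCl pH 7.5; nonspecific binding with 10 μM naloxone. Filtration and scintillation counting; Ki from IC50 by Cheng-Prusoff.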
In general terms: Loss of bound radioactivity is the signal in a displacement assay; it reports binding, not function.

Assay [4] has as its target T1, human μ opioid receptor. Put plainly: Functional activity ([35S]GTPγS binding). The format is biochemical. Conditions: [35S]GTPγS 0.080 nM, CHO cell membranes, 60 min at 30° C., filtration. In short, it runs like this:
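Membranes from stably transfected CHO cells (7.5 μg) incubated with 12 test-compound concentrations and 0.080 nM [35S]GTPγS in 50 mM Tris-HCl pH 7.4, 3 mM MgCl2, 0.2 mM EGTA, 3 μM GDP, 100 mM NaCl, 60 min at 30° C. Nonspecific binding defined with 10 μM GTPγS; bound label collected by filtration and scintillation counting.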

On to `COC1(c2ccnc(C(N)=O)c2)C2CCCC1CN(C[C@H]1CCCO1)C2.Cl` (single isomer, unassigned) [Compound 136], for which, in assay [1], the minimal effective dose was 0.3 mg/kg.

With `NC(=O)c1cccc(C2(OCC(F)(F)F)C3CCCC2CNC3)c1` (centres unmarked) [Compound 184], in assay [2], the EC50 (usually the concentration that produces a half-maximal response) was in the range of 10 to 75 nM.

In the case of `CCOC1(c2cc(F)cc(C(N)=O)c2)C2CCCC1CNC2` (centres unmarked) [Compound 192], in assay [2], the concentration for a half-maximal effect (EC50) was 10 to 75 nM.

Take `COC1(c2cccc(C(N)=O)c2)C2CCCC1CN(Cc1n[nH]c3cnccc13)C2` (centres unmarked) [Compound 191]: the EC50 in assay [2] was in the range of 10 to 75 nM.

`COC1(c2cccc(C(N)=O)c2)C2CCCC1CN([C@@H](C)c1n[nH]c3cnccc13)C2` (some centres unmarked) [Compound 190] came in with an EC50 in assay [2] of less than 10 nM.

The compound `COC1(c2ccnc(C(N)=O)c2)C2CCCC1CN(C1(C)CCC1)C2` (centres unmarked) [Compound 201] gave an EC50 in assay [2] of 10 to 75 nM.

On to `CCOC1(c2cccc(C(N)=O)c2O)C2CCCC1CNC2` (centres unmarked) [Compound 207], for which, in assay [2], the concentration for a half-maximal effect (EC50) was greater than 75 nM.

Turning to `COC1(c2ccnc(C(N)=O)c2)C2CCCC1CN(C[C@@H]1C[C@H]3CC[C@@H](C1)O3)C2` (some centres unmarked) [Compound 165], the EC50 in assay [2] lay within 10 to 75 nM.

Consider `COC1(c2cccc(C(N)=O)c2)C2CCCC1CN(C1CC3CCC(C1)O3)C2` (centres unmarked) [Compound 205], for which, in assay [2], the EC50 is less than 10 nM.

For the compound `COC1(c2cc(F)cc(C(N)=O)c2)C2CCCC1CNC2` (centres unmarked) [Compound 181], in assay [2], the EC50 is 10 to 75 nM.

`COC1(c2ccnc(C(N)=O)c2)C2CCCC1CN(C[C@H]1CCCCO1)C2` (some centres unmarked) [Compound 168] registered an EC50 in assay [2] of 10 to 75 nM.

`COC1(c2cc(C(N)=O)ccc2C)C2CCCC1CN(C)C2` (centres unmarked) [Compound 172] registered an EC50 in assay [2] greater than 75 nM.

In assay [2], `COC1(c2cc(C(N)=O)ccc2F)C2CCCC1CN(C)C2` (centres unmarked) [Compound 173] displayed an EC50 of 10 to 75 nM.

As to `CCOC1(c2cc(Cl)cc(C(N)=O)c2)C2CCCC1CNC2` (centres unmarked) [Compound 185], the EC50 in assay [2] was greater than 75 nM.

Compound `COC1(c2ccnc(C(N)=O)c2)C2CCCC1CN(C1CC3CCC(C1)O3)C2` (centres unmarked) [Compound 204] displayed an EC50 in assay [2] of 10 to 75 nM.

Compound `COC1(c2cc(C(N)=O)ccc2F)C2CCCC1CN(C)C2` (centres unmarked) [Compound 194] yielded an EC50 in assay [2] of 10 to 75 nM.

On to `CCOC1(c2cc(C(N)=O)ccc2F)C2CCCC1CNC2` (centres unmarked) [Compound 186], for which the EC50 in assay [2] lay within 10 to 75 nM.

In assay [2], `COC1(c2ccnc(C(N)=O)c2)C2CCCC1CN(C[C@@H]1CCCCO1)C2` (some centres unmarked) [Compound 169] displayed an EC50 of 10 to 75 nM.

`COC1(c2ccnc(C(N)=O)c2)C2CCCC1CN(C[C@H]1C[C@H]3CC[C@@H](C1)O3)C2` (some centres unmarked) [Compound 164] registered an EC50 in assay [2] of 10 to 75 nM.

Turning to `CCOC1(c2cc(C)cc(C(N)=O)c2)C2CCCC1CNC2` (centres unmarked) [Compound 193], in assay [2], the EC50 is greater than 75 nM.

In the case of `COC1(c2cccc(C(N)=O)c2)C2CCCC1CN([C@H](C)c1n[nH]c3cnccc13)C2` (some centres unmarked) [Compound 189], the EC50 in assay [2] lay within 10 to 75 nM.

In the case of `COC1(c2cccc(C(N)=O)c2)C2CCCC1CN(C[C@H]1C[C@H]3CC[C@@H](C1)O3)C2` (some centres unmarked) [Compound 166], in assay [2], the concentration for a half-maximal effect (EC50) was less than 10 nM.

As for `COC1(c2cccc(C(N)=O)c2)C2CCCC1CN(CC1CCS(=O)(=O)CC1)C2` [Compound 1, 3-((1R,5S,9r)-3-((1,1-dioxidotetrahydro-2H-thiopyran-4-yl)methyl)-9-methoxy-3-azabicyclo[3.3.1]nonan-9-yl)benzamide hydrochloride], the inhibition constant Ki (usually a dissociation constant, usually derived from enzyme kinetics or from competition with a known ligand) in assay [3] lay in the range of 1 to 5 nM. The EC50 in assay [4] is greater than 75 nM.

`COC1(c2ccnc(C(N)=O)c2F)C2CCCC1CN(C1CC1)C2` [Compound 57, 4-((1R,5S,9r)-3-cyclopropyl-9-methoxy-3-azabicyclo[3.3.1]nonan-9-yl)-3-fluoropicolinamide hydrochloride] showed a Ki in assay [3] greater than 5 nM. Also, in assay [4], the EC50 was greater than 75 nM.

With `COC1(c2ccnc(C(N)=O)c2)C2CCCC1CN(C1CC3(CCOCC3)C1)C2` [Compound 13, 4-((1R,5S,9r)-9-methoxy-3-(7-oxaspiro[3.5]nonan-2-yl)-3-azabicyclo[3.3.1]nonan-9-yl)picolinamide hydrochloride], the inhibition constant (Ki) in assay [3] was less than 1 nM. Further, the EC50 in assay [4] is less than 10 nM.

`COC1(c2ccnc(C(N)=O)c2)C2CCCC1CN(C1CC3(CCC3)C1)C2` [Compound 77, 4-((1R,5S,9r)-9-methoxy-3-(spiro[3.3]heptan-2-yl)-3-azabicyclo[3.3.1]nonan-9-yl)picolinamide hydrochloride] yielded a Ki in assay [3] of less than 1 nM. The concentration for a half-maximal effect (EC50) in assay [4] is less than 10 nM.

In assay [3], `COC1(c2ccnc(C(N)=O)c2)C2CCCC1CN([C@H]1C[C@H](C)C1)C2` (stereo partly drawn) [Compound 131, 4-((1R,5S,9R)-9-methoxy-3-((1r,3R)-3-methylcyclobutyl)-3-azabicyclo[3.3.1]nonan-9-yl)picolinamide hydrochloride] displayed a Ki of 1 to 5 nM. The compound also returned an EC50 in assay [4] of 10 to 75 nM.

Take `COC1(c2ccnc(C(N)=O)c2)C2CCCC1CN([C@H](C)c1cnn[nH]1)C2` (some centres unmarked) [Compound 206]: the 50% effective concentration (EC50) in assay [2] was greater than 75 nM.

In turn, `COC1(c2ccnc(C(N)=O)c2)C2CCCC1CN(Cc1ccncc1)C2` [Compound 69, 4-((1R,5S,9r)-9-methoxy-3-(pyridin-4-ylmethyl)-3-azabicyclo[3.3.1]nonan-9-yl)picolinamide hydrochloride] came in with a Ki in assay [3] greater than 5 nM. The compound also came in with an EC50 in assay [4] greater than 75 nM.

In the case of `COC1(c2cccc(C(N)=O)c2)C2CCCC1CN(Cc1nc3ccccc3[nH]1)C2` [Compound 64, 3-((1R,5S,9r)-3-((1H-benzo[d]imidazol-2-yl)methyl)-9-methoxy-3-azabicyclo[3.3.1]nonan-9-yl)benzamide hydrochloride], in assay [3], the Ki was less than 1 nM. In addition, the EC50 in assay [4] is less than 10 nM.

For the compound `COC1(c2ccnc(C(N)=O)c2)C2CCCC1CN([C@@H]1CC[C@H]1c1ccccc1)C2` (stereo partly drawn) [Compound 109, 4-((1R,5S,9R)-9-methoxy-3-((1R,2S)-2-phenylcyclobutyl)-3-azabicyclo[3.3.1]nonan-9-yl)picolinamide hydrochloride], the Ki in assay [3] was less than 1 nM. The compound also displayed an EC50 in assay [4] of less than 10 nM.

In the case of `COC1(c2ccnc(C(N)=O)c2)C2CCCC1CN(C13CC(C1)C3)C2` [Compound 103, 4-((1R,5S,9r)-3-(bicyclo[1.1.1]pentan-1-yl)-9-methoxy-3-azabicyclo[3.3.1]nonan-9-yl)picolinamide hydrochloride], in assay [3], the Ki lay within 1 to 5 nM. In addition, the EC50 in assay [4] was greater than 75 nM.

As for `CN1CC2CCCC(C1)C2(OCC(F)(F)F)c1cccc(C(N)=O)c1` [Compound 37, 3-((1R,5S,9r)-3-methyl-9-(2,2,2-trifluoroethoxy)-3-azabicyclo[3.3.1]nonan-9-yl)benzamide hydrochloride], in assay [3], the inhibition constant Ki was 1 to 5 nM. In addition, the concentration giving a half-maximal response (EC50) in assay [4] lay in the range of 10 to 75 nM.

`COC1(c2ccnc(C(N)=O)c2)C2CCCC1CN(Cc1ncco1)C2` [Compound 113, 4-((1R,5S,9r)-9-methoxy-3-(oxazol-2-ylmethyl)-3-azabicyclo[3.3.1]nonan-9-yl)picolinamide hydrochloride] displayed a Ki in assay [3] greater than 5 nM. The EC50 in assay [4] is greater than 75 nM.

In turn, `COC1(c2cccc(C(N)=O)c2)C2CCCC1CN([C@@H]1CCCOC1)C2` (single isomer, unassigned) [Compound 141, hydrochloride] yielded a Ki in assay [3] of less than 1 nM. In assay [4], this compound came in with an EC50 of 10 to 75 nM.

In assay [3], `COC1(c2cccc(C(N)=O)c2)C2CCCC1CN(CCC(F)F)C2` (centres unmarked) [Compound 159] showed a Ki of less than 1 nM. The compound further came in with an EC50 in assay [4] of less than 10 nM.

In assay [2], `COC1(c2cccc(C(N)=O)c2)C2CCCC1CN(C[C@@H]1C[C@H]3CC[C@@H](C1)O3)C2` (some centres unmarked) [Compound 167] yielded an EC50 of less than 10 nM.

Consider `COC1(c2cccc(C(N)=O)c2)C2CCCC1CN(C1CCC3(CC1)COC3)C2` [Compound 3, 3-((1R,5S,9r)-9-methoxy-3-(2-oxaspiro[3.5]nonan-7-yl)-3-azabicyclo[3.3.1]nonan-9-yl)benzamide (S)-2-hydroxysuccinate], for which the inhibitory constant (Ki) in assay [3] was less than 1 nM. Moreover, in assay [4], the EC50 is less than 10 nM.

`COC1(c2cccc(C(N)=O)c2)C2CCCC1CN(Cc1n[nH]c3ccccc13)C2` [Compound 154, 3-((1R,5S,9r)-3-((1H-indazol-3-yl)methyl)-9-methoxy-3-azabicyclo[3.3.1]nonan-9-yl)benzamide hydrochloride] returned a Ki in assay [3] of less than 1 nM. In assay [4], this compound showed an EC50 of less than 10 nM.

The compound `COC1(c2cccc(C(N)=O)c2)C2CCCC1CN(C[C@H]1CCOC1)C2` (single isomer, unassigned) [Compound 148, hydrochloride] showed a Ki in assay [3] of less than 1 nM. The compound also returned a half-maximal effective concentration (EC50) in assay [4] of less than 10 nM.

The values above are taken from patent US10604489B2, “Compounds for the treatment of pain” (priority 2018, dated 2020).
